Experimental findings from patent US11485762B2, “Compositions and methods for inhibition of L-plastin activity in osteoclasts to reduce bone loss” (University of Maryland, Baltimore, priority 2017, dated 2022) are described below.

The subject of assay [1] is osteoclasts. Nature of the assay: Podosome organization in osteoclasts (actin staining). In kind it is cell-based, mouse. As to conditions: for formation of podosomes: sNT-LPL peptides; for actin modulation involved in podosome assembly/disassembly: TAT-fused LPL peptides. The protocol:
Osteoclast precursors (10^5 cells/coverslips) were cultured on glass cover slips or dentine slices. Fluorescent labeling was done in osteoclasts transduced or untransduced with TAT-proteins. HA or TAT antibody was used to identify the transduced peptides of interest; rhodamine phalloidin was used to determine actin organization (Chellaiah et al., 2000, J. Cell Biol., 148: 665-678; Chellaiah et al., 2000, J. Biol. Chem., 275: 11993-12002). Immunostained and actin stained osteoclasts were photographed with a Bio-Rad confocal laser-scanning microscope. Images were stored in TIF image format and processed by Adobe Photoshop (Adobe Systems Inc., Mountain View. Calif.).
(§1) After cells were kept in the serum-free α-MEM medium for two hours, LPL peptides of interest were added to a final concentration of 100-150 nM to cells in serum-free media (Chellaiah et al, 2000, J. Biol. Chem., 275: 11993-12002). Osteoclasts transduced with peptides of interest and added with bone particles in the presence of TNF-α for 3-4 hours or 12-14 hours were used for lysate preparations. Cells plated on coverslips and treated with peptides were used for actin staining to detect podosomes. After transduction for 30 min., osteoclasts were re-plated on dentine slices with respective LPL peptide and TNF-α for 3-6 hours or 12-14 hours. These cells were used for Actin staining with rhodamine-phalloidin or immunostaining analyses (Chellaiah et al., 2000, J. Biol. Chem., 275: 11993-12002; Chellaiah et al., 2000, J. Cell. Biol., 148: 665-678; Chellaiah et al., 2003, J Biol Chem 278: 29086-29097).
Osteoclasts were fixed with 3% paraformaldehyde for 20 minutes and permeabilized with 0.1% Triton X-100 in PBS for 5 minutes. Subsequently, osteoclasts were stained with a primary (HA or integrin αv) and secondary antibody as described (Chellaiah et al., 2003, J Biol Chem 278: 29086-29097). Actin staining was done with rhodamine-phalloidin as described (Chellaiah et al., 2000, J. Biol. Chem., 275: 11993-12002; Chellaiah et al., 2000, J. Cell Biol., 148: 665-678). Cells were washed and mounted on a slide in a mounting solution (Vector Laboratories) and sealed with nail polish. Immunostained osteoclasts were photographed with a Bio-Rad and Nikon confocal microscope. Images were stored in TIF image format and processed by Adobe Photoshop (Adobe Systems Inc., Mountain View, Calif.).

Assay [2] concerns osteoclasts. Nature of the assay: Osteoclast migration (transwell and phagokinesis assays). In kind it is cell-based, mouse. The text has this:
Transwell migration was done essentially as reported previously (Chellaiah et al., 2000, J. Cell Biol., 148: 665-678). Osteoclasts that migrated to the underside of the transwell membrane were stained with hematoxylin stain. Dried filters ware cut out and mounted with a permount solution (Thomas Scientific, Swedesboro, N.J.) on a glass slide. Cells were viewed under X40 objective in an inverted microscope. Six fields per transwell insert were counted using a Zeiss microscope as described previously (Chellaiah et al., 2000, J. Biol. Chem., 275: 11993-12002). Data are presented as the number of cells per migrated field (mean±SD) from one experiment.
Cell migration (phagokinesis and transwell migration) assays were done as described previously (Chellaiah et al., 2000, J. Cell Biol., 148: 665-678). Osteoclasts transduced with sNT-LPL peptides (P1, P2, P5, and P6) were used for these assays. Three to four transwells were used for each treatment. Migrated cells at the bottom of the wells were counted in 3-4 independent fields/transwell filter. Data are presented as migrated cells/field (mean±SD). The experiment was repeated with three osteoclast preparations. In phagokinesis assay, cell motility was assessed by measuring the areas free of gold particles. By using a grided reticule (Boyce Scientific. Inc.) in the eyepiece of a Nikon microscope, areas free of gold particles were measured using a 10× objective. Areas free of gold particles were represented as area moved in mm^2 (Chellaiah et al., 2000, J. Cell Biol., 148: 665-678),

The subject of the next assay is endogenous LPL. Nature of the assay: Phosphorylation of endogenous LPL in osteoclasts derived from RAW cells. In kind it is cell-based. Particulars: bone particles and TNF-α. The source says:
(§2) C57/BL6 mice were used for osteoclast preparation as described previously (Chellaiah et al., 2000, J. Cell Biol., 148: 665.678; Chellaiah et al., 2007, J. Biol. Chem., 282: 10104-10116). Osteoclasts were generated in vitro using mouse bone marrow (BM) cells as described (Chellaiah et al., 2000, J. Cell Biol., 148: 665-678; Chellaiah et al., 2007, J. Biol. Chem., 282: 10104.10116). Osteoclasts differentiated from RAW 264.7 cells were also used to corroborate a few of the observations made with osteoclasts derived from mouse BM cells. Osteoclasts from RAW 264.7 cells were generated as described previously (Gupta et al., 2003, J Bone Miner Res 18: 669-685). Conditions were established that offer >90% population of mature multinucleated osteoclasts from both mouse bone marrow and RAW cells.
After flushing the marrow cells for osteoclast differentiation, long mouse bones (free of cells inside and muscles outside) were washed extensively with PBS and kept in ethanol until use. Long bones were air-dried in the hood and homogenized by a mini blender. Bone particles were sieved, and bone particles 60-80 μm in size were used for experiments. The multinucleated osteoclasts were seen from day four onward from mouse BM or RAW cells. At this stage, osteoclasts were added with sterile native bone particles (100 μg/ml medium) for 3-4 hours or 12-14 hours in the presence of TNF-α (20 ng/ml). […]

Assay [3] deals with osteoclasts derived from RAW cells. The experiment in a line: NSZs and sealing ring formation in osteoclasts derived from RAW cells. In kind it is cell-based.
Source text: as §2
After cells were kept in the serum-free α-MEM medium for two hours, LPL peptides of interest were added to a final concentration of 100-150 nM to cells in serum-free media (Chellaiah et al, 2000, J. Biol. Chem., 275: 11993-12002). Osteoclasts transduced with peptides of interest and added with bone particles in the presence of TNF-α for 3-4 hours or 12-14 hours were used for lysate preparations. Cells plated on coverslips and treated with peptides were used for actin staining to detect podosomes. […]

The test system is the same in assay [4]. Nature of the assay: Podosome organization and migration in osteoclasts derived from RAW cells. In kind it is cell-based. Particulars: compared with P5.
Source text: as §2, with “RAW cells. […]” for “RAW cells.”
Cell migration (phagokinesis and transwell migration) assays were done as described previously (Chellaiah et al., 2000, J. Cell Biol., 148: 665-678). […] Migrated cells at the bottom of the wells were counted in 3-4 independent fields/transwell filter. […] In phagokinesis assay, cell motility was assessed by measuring the areas free of gold particles. By using a grided reticule (Boyce Scientific. Inc.) in the eyepiece of a Nikon microscope, areas free of gold particles were measured using a 10× objective. […]

A further assay deals with integrin αv. The experiment in a line: Localization of integrin αv in NSZs (immunostaining with LPL and integrin αv antibody). In kind it is cell-based, mouse. As to conditions: 3, 6 and 10 hours. The protocol: as §1
Osteoclasts were fixed with 3% paraformaldehyde for 20 minutes and permeabilized with 0.1% Triton X-100 in PBS for 5 minutes. Subsequently, osteoclasts were stained with a primary (HA or integrin αv) and secondary antibody as described (Chellaiah et al., 2003, J Biol Chem 278: 29086-29097). Actin staining was done with rhodamine-phalloidin as described (Chellaiah et al., 2000, J. Biol. Chem., 275: 11993-12002; Chellaiah et al., 2000, J. Cell Biol., 148: 665-678). […]

Setting [5] is: phagokinesis and transwell migration assays, sNT-LPL peptides.
Where [6] appears, read: transwell migration, TAT-fused LPL peptides.

Entries after “also recorded” stand apart in the source; their conditions may differ.

Consider “MARGAVADEE [Peptide P2, TAT-fused sNT-LPL peptide, Ser-5 and Ser-7 substituted to Alanine (A5A7)]”, for which the formation of podosomes entry in the assay on osteoclasts [1] is on record as “Neither the migration (FIG. 12A-FIG. 12C) nor the formation the podosomes (FIG. 12D) was affected”. Besides, the migration result in the assay on osteoclasts [2] (setting [5]) is listed as “Neither the migration (FIG. 12A-FIG. 12C) nor the formation the podosomes (FIG. 12D) was affected”.
In the case of “MARGSVSDEE [Peptide P1, TAT-fused small molecular weight (10aa) amino-terminal LPL peptide, unsubstituted (S5S7)]”, in the assay on osteoclasts [1], the formation of podosomes result is “Neither the migration (FIG. 12A-FIG. 12C) nor the formation the podosomes (FIG. 12D) was affected”. For the same molecule, the migration result in the assay with osteoclasts [2] (setting [5]) is reported as “Neither the migration (FIG. 12A-FIG. 12C) nor the formation the podosomes (FIG. 12D) was affected”. For the same molecule, the “phosphorylation of endogenous (cellular) LPL” value in the assay with endogenous LPL is recorded as “significant decrease; also recorded: reduced”. In assay [3], the “formation of NSZs” value was “significant decrease” and the “formation of sealing rings” value is given as “significant decrease”. Besides, in assay [4], the migration of osteoclasts result was “no effect” and the “pattern of podosome organization” value is reported as “no effect”. Further, in the assay on integrin αv, the “localization of integrin αv in NSZs / colocalization with LPL” value was “abrogated”.
Turning to “SRSGMVEEAD [Peptide P5, TAT-fused scrambled sNT-LPL peptide, control, reference compound]”, the formation of podosomes result with osteoclasts [1] was “Neither the migration (FIG. 12A-FIG. 12C) nor the formation the podosomes (FIG. 12D) was affected”. Moreover, the migration result with osteoclasts [2] (setting [5]) is listed as “Neither the migration (FIG. 12A-FIG. 12C) nor the formation the podosomes (FIG. 12D) was affected”.

B1: FL-LPL: HA-TAT fused full-length L-plastin protein (70-75 kDa), purified from bacterial expression vector pTAT-HA (protein, UniProt P13796 1-627, looked up)
chain: MARGSVSDEEMMELREAFAKVDTDGNGYISFNELNDLFKAACLPLPGYRVREITENLMATGDLDQDGRISFDEFIKIFHGLKSTDVAKTFRKAINKKEGICAIGGTSEQSSVGTQHSYSEEEKYAFVNWINKALENDPDCRHVIPMNPNTNDLFNAVGDGIVLCKMINLSVPDTIDERTINKKKLTPFTIQENLNLALNSASAIGCHVVNIGAEDLKEGKPYLVLGLLWQVIKIGLFADIELSRNEALIALLREGESLEDLMKLSPEELLLRWANYHLENAGCNKIGNFSTDIKDSKAYYHLLEQVAPKGDEEGVPAVVIDMSGLREKDDIQRAECMLQQAERLGCRQFVTATDVVRGNPKLNLAFIANLFNRYPALHKPENQDIDWGALEGETREERTFRNWMNSLGVNPRVNHLYSDLSDALVIFQLYEKIKVPVDWNRVNKPPYPKLGGNMKKLENCNYAVELGKNQAKFSLVGIGGQDLNEGNRTLTLALIWQLMRRYTLNILEEIGGGQKVNDDIIVNWVNETLREAKKSSSISSFKDPKISTSLPVLDLIDAIQPGSINYDLLKTENLNDDEKLNNAKYAISMARKIGARVYALPEDLVEVNPKMVMTVFACLMGKGMKRV
modifications: full-length HA-TAT tag
notes: HA-TAT fused full-length L-plastin protein (70-75 kDa), purified from bacterial expression vector pTAT-HA
On to B1, for which the “actin modulation involved in podosome assembly/disassembly” value in the assay with osteoclasts [1] is given as “does not affect”. Also, in the assay on osteoclasts [2] (setting [6]), the migration entry is “does not affect”.

B2: mutated FL-LPL: TAT-fused full-length L-plastin with Ser-5 and Ser-7 mutated to Ala-5 and Ala-7 (protein, UniProt P13796 1-627, looked up, variant S5A S7A)
chain: MARGAVADEEMMELREAFAKVDTDGNGYISFNELNDLFKAACLPLPGYRVREITENLMATGDLDQDGRISFDEFIKIFHGLKSTDVAKTFRKAINKKEGICAIGGTSEQSSVGTQHSYSEEEKYAFVNWINKALENDPDCRHVIPMNPNTNDLFNAVGDGIVLCKMINLSVPDTIDERTINKKKLTPFTIQENLNLALNSASAIGCHVVNIGAEDLKEGKPYLVLGLLWQVIKIGLFADIELSRNEALIALLREGESLEDLMKLSPEELLLRWANYHLENAGCNKIGNFSTDIKDSKAYYHLLEQVAPKGDEEGVPAVVIDMSGLREKDDIQRAECMLQQAERLGCRQFVTATDVVRGNPKLNLAFIANLFNRYPALHKPENQDIDWGALEGETREERTFRNWMNSLGVNPRVNHLYSDLSDALVIFQLYEKIKVPVDWNRVNKPPYPKLGGNMKKLENCNYAVELGKNQAKFSLVGIGGQDLNEGNRTLTLALIWQLMRRYTLNILEEIGGGQKVNDDIIVNWVNETLREAKKSSSISSFKDPKISTSLPVLDLIDAIQPGSINYDLLKTENLNDDEKLNNAKYAISMARKIGARVYALPEDLVEVNPKMVMTVFACLMGKGMKRV
modifications: full-length HA-TAT tag
In the case of B2, the “actin modulation involved in podosome assembly/disassembly” value in the assay on osteoclasts [1] is on record as “does not affect”. For the same molecule, the migration entry in the assay with osteoclasts [2] (setting [6]) is “does not affect”.
